Data published in publication PMC10528385 (Antiviral research, 2023).

Columns and labels:
[1] = target: NA of A/Bethesda/956/2006 A(H3N2), NA-R292K (Influenza A virus, UniProt F1KL32, R292K); assay type: biochemical; settings: read-out: Susceptibility to NAIs, mean IC50 ± SD
[2] = target: NA of A/Texas/12/2007 A(H3N2), NA-E119V (Influenza A virus, UniProt D1FVK3, I119V); test: biochemical

CC(=O)N[C@H]1[C@H]([C@H](O)[C@H](O)CO)OC(C(=O)O)=C[C@@H]1N=C(N)N [Zanamivir, zanamivir]
IC50 [1]: 10.6 ± 1.4 nM
IC50 [2]: 1.3 nM
